In ChEMBL document CHEMBL5523724, “Rational Molecular Editing: A New Paradigm in Drug Discovery” (J Med Chem, 2024):

Experiments:
[1] = target: T1, 3-hydroxy-3-methylglutaryl-coenzyme A reductase (Homo sapiens, UniProt P04035); assay: Inhibition of HMG-CoA Reductase (unknown origin)
T1 sequence (P04035 whole entry): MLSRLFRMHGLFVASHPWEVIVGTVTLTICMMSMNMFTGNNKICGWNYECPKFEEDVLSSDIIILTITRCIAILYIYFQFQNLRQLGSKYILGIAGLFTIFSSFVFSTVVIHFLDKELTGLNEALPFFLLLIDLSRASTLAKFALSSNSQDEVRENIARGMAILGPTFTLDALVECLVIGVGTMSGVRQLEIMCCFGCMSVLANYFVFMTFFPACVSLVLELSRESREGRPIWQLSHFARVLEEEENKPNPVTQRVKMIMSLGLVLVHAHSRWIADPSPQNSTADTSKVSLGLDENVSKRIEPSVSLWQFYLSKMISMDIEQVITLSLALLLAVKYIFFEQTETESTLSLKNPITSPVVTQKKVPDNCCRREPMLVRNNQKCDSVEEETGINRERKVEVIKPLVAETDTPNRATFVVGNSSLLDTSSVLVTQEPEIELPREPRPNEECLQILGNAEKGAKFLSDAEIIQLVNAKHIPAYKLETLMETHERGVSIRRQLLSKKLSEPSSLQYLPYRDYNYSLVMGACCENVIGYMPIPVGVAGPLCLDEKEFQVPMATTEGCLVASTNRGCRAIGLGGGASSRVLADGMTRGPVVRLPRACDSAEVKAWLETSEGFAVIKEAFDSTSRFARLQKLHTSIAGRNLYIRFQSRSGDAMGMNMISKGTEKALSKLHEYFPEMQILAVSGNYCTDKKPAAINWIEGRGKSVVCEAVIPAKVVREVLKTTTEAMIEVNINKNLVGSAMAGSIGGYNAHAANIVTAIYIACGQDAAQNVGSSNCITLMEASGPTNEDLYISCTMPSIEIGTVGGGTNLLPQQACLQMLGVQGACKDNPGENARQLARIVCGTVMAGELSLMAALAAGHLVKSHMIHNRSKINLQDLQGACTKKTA

Ramos = assay: Antitumor activity against human Ramos cells; assay type: functional, cell-based

Row | SMILES | IC50 [1] [nM] | IC50 (Ramos) [nM]
1 | CC(C)c1ccc(-c2ccc(F)cc2)n1CC[C@@H]1C[C@@H](O)CC(=O)O1 | 230 | –
2 | Cc1cccc(P(=O)(CNCc2ccccc2)c2cccc(C)c2)c1 | – | 38000
3 | [2H]C([2H])(NCc1ccccc1)P(=O)(c1cccc(C)c1)c1cccc(C)c1 | – | 4200
4 | CC(C)c1c(C(=O)Nc2ccccc2)c(-c2ccccc2)c(-c2ccc(F)cc2)n1CC[C@@H]1C[C@@H](O)CC(=O)O1 [ATORVASTATIN LACTONE] | 7 | –
